Publication PMC4089482, “Bacterial periplasmic sialic acid-binding proteins exhibit a conserved binding site” (Acta Crystallographica Section D: Biological Crystallography, 2014)
Entries after “also recorded” stand apart in the source; their conditions may differ. Read-outs that look alike come from different tables or passages of the source.

Assays:
[1] = test system: V. cholerae O1 biovar eltor strain N16961; test: Growth-curve experiment in M9 minimal medium with different sugars; type: cell-based, Vibrio cholerae; conditions: M9 minimal medium supplemented with sugar (5 mg ml^−1; all at 5 mM), 37°C
Protocol: V. cholerae O1 biovar eltor strain N16961 was initially grown on LB agar plates. Subsequently, 3 ml M9 minimal medium supplemented with different sugars (5 mg ml^−1) was inoculated with bacteria at an OD600 of 0.07. These cultures were incubated in a 37°C shaker at 225 rev min^−1. Optical densities at A 600 were measured at various time points using a Spectronic GENESYS 20 Visible Spectrophotometer to observe the growth pattern of V. cholerae in different compounds. The different sugars used were Neu5Ac, Neu5Gc, fetuin (a glycoprotein of foetal serum that contains different sugars and sialic acid; Spiro, 1960[▶]), asialofetuin, galactose, glycerol, D-lactic acid, succinate, sucrose, DL-malic acid and fructose, all at 5 mM concentration. Based on the readings, a graph of OD600 was plotted.

Pm-SiaP = Pm-SiaP (Pasteurella multocida, UniProt Q9CKB5); test: ITC binding of sialic acids to Pm-SiaP
Protocol: (§1) ITC measurements were performed using a MicroCal ITC system (GE Healthcare). The reaction buffer for all of the experiments was 20 mM HEPES pH 8.0, 10 mM NaCl. All titrations were carried out at 25°C. The protein concentration was determined using the Bio-Rad Bradford reagent. The concentrations of SiaP and Neu5Ac/Neu5Gc were varied in the different titrations and each binding experiment was repeated three times. The nonspecific heat released by the dilution of both the sugars and the protein was calculated by averaging the heat liberated during the last 3–5 injections after saturation. This value was then subtracted from the raw heat released during each injection. To derive the stoichiometric values, the data sets were analyzed using a single-site binding model from the Origin ITC analysis software (MicroCal). In this analysis, the values for the stoichiometry, the change in enthalpy (ΔH) and the affinity were fitted using nonlinear least-squares analysis. To derive the values for the affinity, ΔS and ΔH, data sets were globally analyzed using the single-site binding model in SEDPHAT (Vistica et al., 2004[▶]; Dam & Schuck, 2005[▶]).

Hi-SiaP wild type [2] = target: T1, Hi-SiaP wild type (Haemophilus influenzae, UniProt P44542); parameters: method as in Johnston et al. (2008); conditions: taken for comparison; ref Johnston et al. (2008); cited from earlier work
T1 construct: made in house

Hi-SiaP T64R mutant = target: T2, Hi-SiaP T64R mutant (Haemophilus influenzae, UniProt P44542, T87R); test: ITC binding of Neu5Ac to Hi-SiaP T64R; conditions: 25°C
T2 construct: made in house
Protocol: as §1

Hi-SiaP wild type [3] = target: T1, Hi-SiaP wild type; test: ITC binding of Neu5Ac to wild-type Hi-SiaP
Protocol: as §1

Hi-SiaP N187Q mutant = target: T3, Hi-SiaP N187Q mutant (Haemophilus influenzae, UniProt P44542, N210Q); test: ITC binding of Neu5Ac to Hi-SiaP N187Q; conditions: 25°C
T3 construct: made in house
Protocol: as §1

Hi-SiaP H209A mutant = target: T4, Hi-SiaP H209A mutant (Haemophilus influenzae, UniProt P44542, H232A); test: ITC binding of Neu5Ac to Hi-SiaP H209A; conditions: 25°C
T4 construct: made in house
Protocol: as §1

Hi-SiaP R127K mutant = target: T5, Hi-SiaP R127K mutant (Haemophilus influenzae, UniProt P44542, R150K); test: ITC binding of Neu5Ac to Hi-SiaP R127K; conditions: 25°C
T5 construct: made in house
Protocol: as §1

Fn-SiaP = Fn-SiaP (Fusobacterium nucleatum subsp. nucleatum, UniProt Q8RDN9); test: ITC binding of sialic acids to Fn-SiaP; conditions: 25°C; for H (change in enthalpy, ΔH) / Kd / T S (entropic component): 20 mM HEPES pH 8.0, 10 mM NaCl
Protocol: as §1

Hi-SiaP T64K mutant = target: T6, Hi-SiaP T64K mutant (Haemophilus influenzae, UniProt P44542, T87K); test: ITC binding of Neu5Ac to Hi-SiaP T64K
T6 construct: made in house
Protocol: as §1

V. cholerae = test: ELISA (3F11) of Neu5Ac incorporation onto surface LOS; type: cell-based, Vibrio cholerae
Protocol: V. cholerae was grown on sBHI agar plates containing 100 µM Neu5Ac and LB. Cells were harvested and resuspended in PBS (20 mM Na2HPO4, 150 mM NaCl pH 7.0) at an OD600 of 0.2. The wells of Costar 96-well EIA/RIA plates (Corning) were filled with 100 µl of the bacterial suspension and six wells were used for each experiment. The plates were dried at 40°C overnight. The plates were washed four times with buffer C (72 mM sodium acetate, 165 mM sodium chloride, 0.55% Tween 20) using an ELx50 Strip Washer (BioTek Instruments, Winooski, Vermont, USA). A neuraminidase digest was performed on three wells by adding 100 µl 0.01 U ml^−1 neuraminidase (Roche Diagnostics GmbH, Mannheim, Germany) diluted in neuraminidase buffer (50 mM sodium acetate, 154 mM NaCl, 9 mM CaCl2, 25 µg ml^−1 human serum albumin pH 5.6) and the other three wells were treated with just the buffer. The plate was incubated for 6 h at 37°C and the wells were then washed. The monoclonal antibody 3F11, diluted 1/200 in buffer C, was added to each well. The plates were incubated at 37°C overnight (approximately 18 h) followed by a wash. The secondary antibody, phosphatase-labelled goat anti-mouse IgM (Kirkegaard and Perry Laboratories, Gaithersburg, Maryland, USA), diluted 1/2000 in buffer C, was added. […] When a yellow colour had developed, the absorbance at 405 nm was read using a Microplate Autoreader EL311 (BioTek Instruments).

Hi-SiaP E67A mutant = target: T7, Hi-SiaP E67A mutant (Haemophilus influenzae, UniProt P44542, E90A); test: ITC binding of Neu5Ac to Hi-SiaP E67A
T7 construct: made in house
Protocol: as §1

Hi-SiaP E186Q mutant = target: T8, Hi-SiaP E186Q mutant (Haemophilus influenzae, UniProt P44542, E209Q); test: ITC binding of Neu5Ac to Hi-SiaP E186Q
T8 construct: made in house
Protocol: as §1

Vc-SiaP = target: T9, Vc-SiaP (Vibrio cholerae serotype O1, UniProt Q9KR64); test: ITC binding of sialic acids to Vc-SiaP; conditions: 25°C; for H (change in enthalpy, ΔH) / Kd / T S (entropic component): 20 mM HEPES pH 8.0, 10 mM NaCl
T9 construct: PCR-amplified using the forward primer 5′-[…]-3′; made in house; host or cells: Escherichia coli BL21 (DE3)
T9 sequence (Q9KR64 23-321): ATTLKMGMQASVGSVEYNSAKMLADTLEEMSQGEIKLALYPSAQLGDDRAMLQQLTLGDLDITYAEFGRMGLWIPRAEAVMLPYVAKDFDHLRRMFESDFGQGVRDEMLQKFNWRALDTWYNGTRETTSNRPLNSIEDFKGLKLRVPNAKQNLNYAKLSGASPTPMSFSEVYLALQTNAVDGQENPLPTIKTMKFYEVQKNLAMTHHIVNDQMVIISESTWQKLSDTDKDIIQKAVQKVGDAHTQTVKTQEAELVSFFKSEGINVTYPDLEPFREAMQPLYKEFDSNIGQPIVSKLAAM
Protocol: as §1

[4] = ITC, 20 mM HEPES pH 8.0, 10 mM NaCl, 25°C
[5] = ITC, 20 mM HEPES pH 8.0, 10 mM NaCl, 25°C, read-out: K d

## C[C@@H](O)C(=O)O [D-lactic acid]
[1]
  growth of V. cholerae in the presence of the compound (OD600): No growth

## O=C(CO)[C@@H](O)[C@H](O)[C@H](O)CO [fructose]
[1]
  growth of V. cholerae in the presence of the compound (OD600): Little growth

## CC(=O)NC1C(O)CC(O)(C(=O)O)OC1C(O)C(O)CO (stereo not drawn) [Neu5Ac]
Pm-SiaP; [4]
  H (change in enthalpy, ΔH): 6560 calmol^1
  T S (entropic component): 3948.2 calmol^1
Pm-SiaP; [5]
  Kd: 19.7 nM
Pm-SiaP; fit box of the isotherm in Figure 4, single-site model, read-out: K (association constant) (converted)
  Kd: 27 nM
Hi-SiaP wild type [2]
  H (change in enthalpy, ΔH): 15300 calmol^1
  Kd: 28 nM
  T S (entropic component): 5000 calmol^1
[1]
  growth of V. cholerae in the presence of the compound (OD600): grows
Hi-SiaP T64R mutant
  K d / binding to Neu5Ac: No measurable binding
Hi-SiaP wild type [3]
  affinity for Neu5Ac in words: nanomolar affinity
Hi-SiaP wild type [3]; 20 mM HEPES pH 8.0, 10 mM NaCl, 25°C
  Kd: 16.6 nM
Hi-SiaP wild type [3]; 25°C
  H (change in enthalpy, ΔH): 17500 calmol^1
  T S (entropic component): 6883 calmol^1
Hi-SiaP N187Q mutant
  H (change in enthalpy, ΔH): 7939 calmol^1
  T S (entropic component): 40.826 calmol^1
Hi-SiaP H209A mutant
  H (change in enthalpy, ΔH): 13360 calmol^1
  T S (entropic component): 4917 calmol^1
Hi-SiaP R127K mutant
  K d / binding to Neu5Ac: did not bind to Neu5Ac with measurable affinity; also recorded: No measurable binding
Fn-SiaP
  H (change in enthalpy, ΔH): 9165 calmol^1
  Kd: 45.5 nM
  T S (entropic component): 849.3 calmol^1
Hi-SiaP T64K mutant
  affinity for Neu5Ac in words: micromolar affinity
Hi-SiaP T64K mutant; 25°C
  H (change in enthalpy, ΔH): 8743 calmol^1
  T S (entropic component): 294.72 calmol^1
V. cholerae; 100 µM Neu5Ac, binding did occur after neuraminidase: sialic acid incorporated into surface LOS
  3F11 binding of V. cholerae grown with Neu5Ac (ELISA): did not bind 3F11
V. cholerae; 3F11 ELISA, Figure S4, very little difference in LB media control
  difference in absorbance before and after adding neuraminidase (level of Neu5Ac incorporation): significant difference
Hi-SiaP E67A mutant
  affinity for Neu5Ac in words: micromolar affinity
Hi-SiaP E67A mutant; 25°C
  H (change in enthalpy, ΔH): 249.5 calmol^1
  T S (entropic component): 6168.6 calmol^1
Hi-SiaP E186Q mutant
  affinity for Neu5Ac in words: micromolar affinity
Hi-SiaP E186Q mutant; 25°C
  H (change in enthalpy, ΔH): 6827 calmol^1
  T S (entropic component): 1016 calmol^1
Vc-SiaP
  H (change in enthalpy, ΔH): 7175 calmol^1
  Kd: 306 nM
  T S (entropic component): 508.9 calmol^1

## O=C[C@H](O)[C@@H](O)[C@@H](O)[C@H](O)CO [galactose]
[1]
  growth of V. cholerae in the presence of the compound (OD600): No growth

## O=C(CO)N[C@H]1[C@H]([C@H](O)[C@H](O)CO)OC(O)(C(=O)O)C[C@@H]1O (stereo partly drawn) [Neu5Gc]
Pm-SiaP; [4]
  H (change in enthalpy, ΔH): 7469 calmol^1
  T S (entropic component): 2777.3 calmol^1
Pm-SiaP; [5]
  Kd: 30.7 nM
[1]
  growth of V. cholerae in the presence of the compound (OD600): No growth; also recorded: cannot use Neu5Gc as a carbon source
Fn-SiaP
  H (change in enthalpy, ΔH): 12074 calmol^1
  Kd: 45.7 nM
  T S (entropic component): 2059.4 calmol^1
Vc-SiaP
  H (change in enthalpy, ΔH): 5200 calmol^1
  Kd: 1090 nM
  T S (entropic component): 1127.6 calmol^1

## CC(=O)N[C@H]1[C@H]([C@H](O)[C@H](O)CO)OC(C(=O)O)=C[C@@H]1O [Neu5Ac2en, N-acetyl-2,3-dehydro-2-deoxyneuraminic acid]
Pm-SiaP; ITC, 25°C
  interaction measured by ITC: no measurable interaction
Fn-SiaP
  interaction measured by ITC: no measurable interaction
Vc-SiaP
  interaction measured by ITC: no measurable interaction

## O=C(O)CCC(=O)O [succinate]
[1]
  growth of V. cholerae in the presence of the compound (OD600): Little growth

## O=C(O)CC(O)C(=O)O (racemic) [DL-malic acid]
[1]
  growth of V. cholerae in the presence of the compound (OD600): Little growth

## OCC(O)CO [glycerol]
[1]
  growth of V. cholerae in the presence of the compound (OD600): No growth

## OC[C@H]1O[C@@](CO)(O[C@H]2O[C@H](CO)[C@@H](O)[C@H](O)[C@H]2O)[C@@H](O)[C@@H]1O [sucrose]
[1]
  growth of V. cholerae in the presence of the compound (OD600): Little growth

B1: fetuin: a glycoprotein of foetal serum that contains different sugars and sialic acid (protein, UniProt P12763 19-359, looked up)
Alpha-2-HS-glycoprotein: IPLDPVAGYKEPACDDPDTEQAALAAVDYINKHLPRGYKHTLNQIDSVKVWPRRPTGEVYDIEIDTLETTCHVLDPTPLANCSVRQQTQHAVEGDCDIHVLKQDGQFSVLFTKCDSSPDSAEDVRKLCPDCPLLAPLNDSRVVHAVEVALATFNAESNGSYLQLVEISRAQFVPLPVSVSVEFAVAATDCIAKEVVDPTKCNLLAEKQYGFCKGSVIQKALGGEDVRVTCTLFQTQPVIPQPQPDGAEAEAPSAVPDAAGPTPSAAGPPVASVVVGPSVVAVPLPLHRAHYDLRHTFSGVASVESSSGEAFHVGKTPIVGQPSIPGGPVRLCPGRIRYFKI
[1]
  growth of V. cholerae in the presence of the compound (OD600): grows

B2: asialofetunin: asialofetuin, used as a carbon source in the growth experiment (protein, UniProt P12763 19-359, looked up)
Alpha-2-HS-glycoprotein: IPLDPVAGYKEPACDDPDTEQAALAAVDYINKHLPRGYKHTLNQIDSVKVWPRRPTGEVYDIEIDTLETTCHVLDPTPLANCSVRQQTQHAVEGDCDIHVLKQDGQFSVLFTKCDSSPDSAEDVRKLCPDCPLLAPLNDSRVVHAVEVALATFNAESNGSYLQLVEISRAQFVPLPVSVSVEFAVAATDCIAKEVVDPTKCNLLAEKQYGFCKGSVIQKALGGEDVRVTCTLFQTQPVIPQPQPDGAEAEAPSAVPDAAGPTPSAAGPPVASVVVGPSVVAVPLPLHRAHYDLRHTFSGVASVESSSGEAFHVGKTPIVGQPSIPGGPVRLCPGRIRYFKI
modifications: desialylated
notes: asialofetuin, used as a carbon source in the growth experiment
[1]
  growth of V. cholerae in the presence of the compound (OD600): No growth
